Experimental data reported in ChEMBL document CHEMBL1125787, “Synthesis and anti-HIV-1 activity of 4,5,6,7-tetrahydro-5-methylimidazo[4,5,1-jk][1,4]benzodiazepin-2(1H)-on e (TIBO) derivatives. 2” (J Med Chem, 1991).
pIC50: −log10 of the molar value.

What follows are compounds tested on MT4 (assay: Ability to block replication of HIV-1 virus in MT-4 cells). Conditions: Homo sapiens.

SMILES	pIC50
COc1nc2cccc3c2n1CC(C)N(CC=C(C)C)C3 (stereo unspecified)	< 3.60
CC1Cn2c(O)nc3cc(Cl)cc(c32)CN1CCC1CC1 (stereo unspecified)	5.66
C/N=C(/S)N1CC(C)N(CC2CC2)Cc2cc(Cl)ccc21 (stereo unspecified)	< 5.00
CC1Cn2c(S)nc3cc(Cl)cc(c32)CN1CCC1CC1 (stereo unspecified)	6.38
CCCN1Cc2cccc3c2n(c(=O)n3C(C)C)CC1C (stereo unspecified)	< 3.60
CC1Cn2c(O)nc3cc(Cl)cc(c32)CN1CC1CCC1 (stereo unspecified)	6.42
CC(C)=CCN1Cc2cccc3nc(N(C)C)n(c23)CC1C (stereo unspecified)	< 3.60
CC(C)=CCN1Cc2cccc3nc(O)n(c23)CC1C (stereo unspecified)	5.01
CC(C)=CCN1Cc2cc(Cl)cc3nc(S)n(c23)C[C@H]1C	6.41
CC1CN2C(=O)CNc3cc(Cl)cc(c32)CN1CC1CC1 (stereo unspecified)	< 5.00
C=C(C)CN1Cc2cccc3c2C(CC1C)C(=O)N3 (stereo unspecified)	< 4.30
C=CCn1c(=O)n2c3c(cccc31)CN(CCC)C(C)C2 (stereo unspecified)	< 4.30
CCCN1Cc2cccc3[nH]c(=O)n(c23)CC1C (stereo unspecified)	4.22
CC(C)=CCN1Cc2cc(Cl)cc3[nH]c(=O)n(c23)C[C@@H]1C	6.74
O=c1[nH]cnc2c1ncn2[C@H]1CC[C@@H](CO)O1 [DIDANOSINE]	5.26
C=C(C)CN1Cc2cccc3ncn(c23)CC1C (stereo unspecified)	< 5.70
CCCN1Cc2cccc3c2n(c(=O)n3CC#N)CC1C (stereo unspecified)	< 3.60
CC1Cn2c(O)nc3cccc(c32)CN1CC1CC1 (stereo unspecified)	5.00
CCCN1Cc2cccc3[nH]c(Cl)c(c23)CC1C (stereo unspecified)	< 4.30
CC(C)=CCN1Cc2cc(Cl)cc3nc(NC#N)n(c23)CC1C (stereo unspecified)	< 3.60
CCCN1Cc2cccc3[nH]c(=O)c(=O)n(c23)CC1C (stereo unspecified)	< 3.60
CCCN1Cc2cccc3[nH]c(=S)n(c23)CC1C (stereo unspecified)	5.77
CCCN1Cc2cccc3[nH]cc(c23)CC1C (stereo unspecified)	< 3.60

SMILES	pIC50
CCC(=CCN1Cc2cc(Cl)cc3nc(S)n(c23)CC1C)CC (stereo unspecified)	7.92
Cc1cn([C@H]2C[C@H](N=[N+]=[N-])[C@@H](CO)O2)c(=O)[nH]c1=O [ZIDOVUDINE]	8.40
CC(C)=CCN1Cc2cc(Cl)cc3[nH]c(=S)n(c23)C[C@@H]1C	7.41
CC(C)=CCN1Cc2cc(Cl)cc3[nH]c(=O)n(c23)C[C@H]1C	5.38
CC1Cn2c(N=C(N)N)nc3cc(Cl)cc(c32)CN1CC1CC1 (stereo unspecified)	< 4.30
CC1CN2c3c(cc(Cl)cc3NS2(=O)=O)CN1CC1CC1 (stereo unspecified)	< 5.00
CCC(=CCN1Cc2cc(Cl)cc3nc(O)n(c23)CC1C)CC (stereo unspecified)	7.54
CCCN1Cc2cccc3c2N(CC1C)C(=O)C3 (stereo unspecified)	< 3.60
C=C(C)CN1Cc2cccc3c2C(CC1C)C(S)=N3 (stereo unspecified)	< 5.00
C=C(C)CN1Cc2cccc3c2C(O)(CC1C)C(=O)N3 (stereo unspecified)	< 3.60
CNc1nc2cccc3c2n1CC(C)N(CC=C(C)C)C3 (stereo unspecified)	< 3.60
CC1Cn2c(=O)oc3cccc(c32)CN1CC1CCC1 (stereo unspecified)	< 5.70
C=CCN1Cc2cccc3c2C(CC1C)C(S)=N3 (stereo unspecified)	< 3.60
CC1Cn2c(S)nc3cc(Cl)cc(c32)CN1CC1CCC1 (stereo unspecified)	7.59
COC(=O)Nc1nc2cc(Cl)cc3c2n1C[C@@H](C)N(CC=C(C)C)C3	< 5.00
CCCN1Cc2cccc3nnn(c23)CC1C (stereo unspecified)	< 5.00
CC(C)=CCN1Cc2cc(Cl)cc3nc([SeH])n(c23)CC1C (stereo unspecified)	7.74
C=C(C)CN1Cc2cccc3nc(S)n(c23)CC1C (stereo unspecified)	7.59
CCCN1Cc2cccc3c2n(c(=O)n3C)CC1C (stereo unspecified)	< 3.60
C=C(C)CN1Cc2cccc3[nH]c(=O)n(c23)CC1C (stereo unspecified)	4.82
CC(C)=CCN1Cc2cccc3[nH]c(=S)n(c23)C[C@@H]1C	7.01
CC1Cn2c(S)nc3cccc(c32)CN1CC1CC1 (stereo unspecified)	7.22
CC(C)=CCN1Cc2cccc3nc(Sc4ccccc4)n(c23)CC1C (stereo unspecified)	< 4.30
